Like-named read-outs stand apart in the source and are kept apart here.
Legend:
[1] = cited from earlier work
[2] = Cellvento CHO 200, text
[3] = in water at 25° C.; cited from earlier work

SMILES | Solubility (water) PubChem Database ([1]; at 25° C.) | also measured
Cl.NCCCC[C@H](N)C(=O)O [L-LYSINE MONOHYDROCHLORIDE] | >100 g/100 g/100 ml | –
C[C@H](N)C(=O)O [L-ALANINE] | 164 g/l water | –
CSCC[C@H](N)C(=O)O [L-Methionine] | 56.6 g/L water g/l | –
N[C@@H](CSSC[C@H](N)C(=O)O)C(=O)O [L-Cystine, L-cystine] | – | Maximal concentration in Cellvento CHO 200 at which the medium can still be completely dissolved in water [2]: below 0.1 g/L; Solubility [3]: nearly insoluble
O=C(CO)[C@@H](O)[C@H](O)[C@H](O)CO [D(−)-FRUCTOSE] | 200 g/100 ml | –
O=C[C@@H](O)[C@@H](O)[C@H](O)[C@H](O)CO [D(+)-Mannose] | – | Solubility (water) PubChem Database ([1]; at 17° C.): 713 g/L bei
[Cl-].[K+] [Potassium chloride] | 35.5/100 g /100 g water | –
[Ca+2].[Cl-].[Cl-] [Calcium Chloride anhydrous] | – | Solubility (water) PubChem Database ([1]; at 20° C.): 745 g/l at
